Experimental data taken from ChEMBL document CHEMBL5728596, “Inhibitors of cysteine proteases and methods of use thereof” (2021).

Assay: Evaluation of Antiviral Activity of Compounds Against Human Coronavirus (HCov) 229E and OC43 in the Cytopathic Effect (CPE) Assays: Compounds were assayed using standard methods against multiple coronaviral strains, including HCoV 229E and OC43 strains. […] The antiviral activity of compounds was calculated based on the protection of the virus-induced CPE at each concentration normalized by the virus control.

Q: Which EC50 does the source give for COc1cccc2[nH]c(C(=O)N[C@@H](CC(C)C)C(=O)N[C@H](/C=C/S(C)(=O)=O)C[C@@H]3CCNC3=O)cc12 here?
A: Its EC50 is over 30 µM.

Q: For COc1cccc2[nH]c(C(=O)N[C@@H](CC(C)C)C(=O)N[C@@H](C[C@@H]3CCNC3=O)[C@@H](C#N)N3CCCC3)cc12 (single isomer, unassigned), which EC50 is on record?
A: The EC50 was under 22 µM.

Q: Which EC50 does the source give for COc1cccc2[nH]c(C(=O)N[C@@H](CC(C)C)C(=O)N[C@@H](C[C@@H]3CCNC3=O)C(C#N)Nc3ccccc3)cc12 (stereo partly drawn) here?
A: Its EC50 is 6 µM.

Q: Which EC50 does the source give for COc1cccc2[nH]c(C(=O)N[C@@H](CC(C)C)C(=O)N[C@@H](C[C@@H]3CCNC3=O)[C@H](C#N)N3CCCC3)cc12 (single isomer, unassigned) here?
A: The EC50 was under 22 µM.

Q: For N#C[C@H](C[C@@H]1CCCNC1=O)NC(=O)C1CC2(CCCCC2)CN1C(=O)c1cc2cccc(Cl)c2[nH]1 (single isomer, unassigned; isomer 1), which EC50 is on record?
A: Its EC50 is under 22 µM.

Q: Which EC50 does the source give for COc1cccc2[nH]c(C(=O)N[C@@H](CC(C)C)C(=O)N[C@@H](C[C@@H]3CCNC3=O)C(C#N)NCC(=O)O)cc12 (stereo partly drawn) here?
A: Its EC50 is under 22 µM.

Q: With COc1cccc2[nH]c(C(=O)N[C@@H](CC(C)C)C(=O)NC(C#N)c3cccnc3)cc12 (stereo partly drawn) as the compound, how does the EC50 read?
A: Its EC50 is 6 µM.

Q: For COc1cccc2[nH]c(C(=O)N[C@@H](CC(C)(C)C)C(=O)N[C@H](C#N)C[C@@H]3CCCNC3=O)cc12, which EC50 is on record?
A: The EC50 was under 22 µM.

Q: Which EC50 does the source give for COc1cccc2[nH]c(C(=O)N3C[C@@H](C45CC(C4)C5)C[C@H]3C(=O)N[C@H](C#N)C[C@@H]3CCNC3=O)cc12 (single isomer, unassigned) here?
A: Its EC50 is under 22 µM.

Q: With COc1cccc2[nH]c(C(=O)N[C@@H](CC(C)C)C(=O)N[C@H](C#N)C[C@@H]3CCNC3=O)cc12 as the compound, how does the EC50 read?
A: Its EC50 is under 22 µM.

Q: For N#C[C@H](C[C@@H]1CCNC1=O)NC(=O)[C@H](CC1CC1)NC(=O)c1cc2cccc(Cl)c2[nH]1, which EC50 is on record?
A: Its EC50 is under 22 µM.

Q: With CC(C)C[C@H](NC(=O)c1nc2ncccc2[nH]1)C(=O)N[C@H](C#N)C[C@@H]1CCNC1=O as the compound, how does the EC50 read?
A: The EC50 was 6 µM.

Q: With N#C[C@H](C[C@@H]1CCCNC1=O)NC(=O)C1CC2(CN1C(=O)c1cc3cccc(Cl)c3[nH]1)CC(F)(F)C2 (single isomer, unassigned) as the compound, how does the EC50 read?
A: The EC50 was under 22 µM.

Q: With N#C[C@H](C[C@@H]1CCNC1=O)NC(=O)[C@H](CC1CC1)NC(=O)c1cc2cc(Cl)ccc2[nH]1 as the compound, how does the EC50 read?
A: Its EC50 is under 22 µM.

Q: With COc1cccc2[nH]c(C(=O)N3C[C@H](SC)C[C@H]3C(=O)N[C@H](C#N)C[C@@H]3CCNC3=O)cc12 as the compound, how does the EC50 read?
A: The EC50 was 6 µM.

Q: Which EC50 does the source give for CCCOc1cccc2[nH]c(C(=O)N[C@@H](CC(C)C)C(=O)N[C@H](C#N)C[C@@H]3CCNC3=O)cc12 here?
A: Its EC50 is under 22 µM.

Q: Which EC50 does the source give for COc1cccc2[nH]c(C(=O)N3C[C@H](C45CC(C4)C5)C[C@H]3C(=O)N[C@H](C#N)C[C@@H]3CCNC3=O)cc12 (single isomer, unassigned) here?
A: The EC50 was under 22 µM.

Q: Which EC50 does the source give for COc1cccc2[nH]c(C(=O)N[C@@H](CC(C)(F)F)C(=O)N[C@H](C#N)C[C@@H]3CCNC3=O)cc12 (single isomer, unassigned) here?
A: The EC50 was under 22 µM.

Q: For COc1cccc2[nH]c(C(=O)N[C@@H](CC3CCC3)C(=O)N[C@H](C#N)C[C@@H]3CCNC3=O)cc12, which EC50 is on record?
A: Its EC50 is under 22 µM.

Q: For CC(C)C[C@H](NC(=O)c1cc2c(OC(F)F)cccc2[nH]1)C(=O)N[C@H](C#N)C[C@@H]1CCNC1=O, which EC50 is on record?
A: The EC50 was under 22 µM.

Q: With N#C[C@H](C[C@@H]1CCCNC1=O)NC(=O)[C@@H]1CC2(CCCCC2)CN1C(=O)c1cc2ccc(Cl)cc2[nH]1 (single isomer, unassigned) as the compound, how does the EC50 read?
A: The EC50 was under 22 µM.

Q: With CCCN1C(=N)C([C@H](C[C@@H]2CCNC2=O)NC(=O)[C@H](CC(C)C)NC(=O)c2cc3c(OC)cccc3[nH]2)OC1=O (stereo partly drawn) as the compound, how does the EC50 read?
A: Its EC50 is over 30 µM.

Q: For COc1cccc2[nH]c(C(=O)N3C[C@H](OC)C[C@H]3C(=O)N[C@H](C#N)C[C@@H]3CCNC3=O)cc12, which EC50 is on record?
A: The EC50 was under 22 µM.
